Like-named read-outs stand apart in the source and are kept apart here.
Legend:
[1] = system: Salmonella Enteritidis, ATCC 13076; experiment: Microtiter plate assay, growth inhibition; assay type: cell-based; conditions: Salmonella enterica, read-out: level needed to inhibit the growth (MIC)
Experimental: (§1) Stock cultures of Escherichia coli 413-1, ATCC 25922, Salmonella Enteritidis, ATCC 13076, Bacillus subtilis PB6 (Kemin Industries) and Lactobacillus johnsonii D115 (Kemin Industries) were cultured from agar plates held at 4° C. and inoculated into tubes of either Tryptic Soy Broth (TSB) or de Man, Rogosa and Sharpe (MRS) broth. The bacteria were incubated aerobically or anaerobically as appropriate at 37° C. for 20-22 h. All microbial cultures used in this work are strains maintained in an in-house culture collection.
(§2) Stock solutions of 1000 ppm each of carvacrol and thymol standards were prepared in sterile TSB to which 0.1% agar was added for stabilization of the oil:water emulsion (Rasooli et al., 2007; Burt, S. and R. Reinders. 2003. Antibacterial activity of selected plant essential oils against Escherichia coli O157:H7. Letters Appl. Microbiol. 36:162-167). Subsequent dilutions and/or combinations of the standard stock solutions were prepared in TSB to achieve the targeted inclusion level of each molecule.
(§3) Stock solutions of 1000 ppm were made of each of the HC and HT extracted oils in sterile TSB or MRS broth to which 0.1% agar was added. Subsequent dilutions and/or combinations of the extracted oil stock solutions were prepared in TSB or MRS to achieve the targeted inclusion level of each molecule.
(§4) The efficacy of carvacrol and thymol in the inhibition of microbial growth was evaluated in a microtiter plate assay measuring the optical density at 620 nm using an Optimax microtiter plate reader (Molecular Devices, Sunnyvale, Calif.). Plates were read kinetically (aerobic organisms) or endpoint (anaerobic organisms) over 20-24 h while maintaining temperature at 35° C. All results reflect the average optical density measurements of four microtiter wells. A 100 uL aliquot of a test organism (1.0E+06 cfu/mL) in sterile saline and a 100 μL aliquot of experimental treatment were dispensed into individual microtiter plate wells. Treatments prepared in TSB were used for E. coli, S. Enteritidis and PB6 while treatments prepared in MRS broth were used for L. johnsonii D115. Positive controls consisted of 100 μL of test organism in sterile saline and 100 μL of sterile TSB or MRS. Negative controls were made of 100 μL of sterile TSB or MRS and 100 μL of sterile saline (no organisms).
(§5) The inhibitory levels of carvacrol and thymol against selected microorganisms were evaluated through several formulation matrices designed to assess the individual molecules as well as combinations of the molecules. Initially, thirteen formulations were prepared according to the incomplete 4×4 matrix design in Table 1 using 0, 125, 250 and 500 ppm each of carvacrol standard and thymol standard to evaluate the inhibitory activity toward selected microorganisms. […]

[2] = system: Escherichia coli 413-1, ATCC 25922; experiment: Microtiter plate assay, growth inhibition; assay type: cell-based
Experimental: as §1, §2, §3, §4, §5

MIC ([1]; microtiter plate, OD 620 nm, 20-24 h, 35° C.) | MIC ([2]; ATCC25922, microtiter plate, OD 620 nm, 20-24 h, 35° C., read-out: level needed to inhibit the growth (MIC)) | SMILES | MIC [1] | MIC ([2]; ATCC25922, read-out: level needed to inhibit the growth (MIC))
– | – | Cc1ccc(C(C)C)cc1O [carvacrol] | 125 to 250 µg/mL | 125 to 250 µg/mL
125 to 250 µg/mL | 125 to 250 µg/mL | Cc1ccc(C(C)C)c(O)c1 [thymol] | – | –

Reference: patent US20160157482A1, “Antimicrobial Compositions Containing Carvacrol and Thymol” (Kemin Industries, Inc., priority 2013, published 2016)
